From patent publication US20090048160A1, “Antimicrobial activity of bovine bactericidal/permeability-increasing protein (BPI)-derived peptides against Gram-negative bacterial mastitis isolates” (priority 2007, published 2009)
Ends that are not written are not given here.

Key:
[1] = tested on: Enterobacter cloacae; assay: microbe, parasite or virus in culture; type: cell-based
Source text: (§1) Bacterial isolates of Escherichia coli, Klebsiella pneumonia, Serratia marcescens, Pseudomonas aeruginosa, Enterobacter cloacae, and Enterobacter aerogenes, which were obtained from clinical cases of bovine mastitis, were used to assess the bactericidal activity of peptides in a broth microdilution assay. Isolates were obtained from repositories at Cornell University (gift of Dr. Y. H. Schukken; Quality Milk Production Services Program, Cornell University, Ithaca N.Y.) and the USDA Beltsville Agricultural Research Center. […] A. J. Bramley, Institute for Animal Health, Compton Laboratory, Newbury, England), which was originally isolated from a clinical case of mastitis ([…]. Dairy Res. 43: 205-211) was also used to assess the bactericidal activity of the peptides in biological fluids. Reference strains of E. coli (ATCC 25922) and Staphylococcus aureus (ATCC 29213) were obtained from a commercial source (American Type Culture Collection (ATCC), Manassas, Va.). To obtain fresh inoculums for evaluation, a sterile loop of each bacterial glycerol stock was streaked on a blood agar plate. After an overnight incubation at 35° C., a single uniform colony was picked and sub-passaged by streaking on a new blood agar plate and incubating the plate overnight at 35° C. To evaluate the antimicrobial activity of the peptides against various clinical mastitis bacterial isolates, the minimum inhibitory concentration (MIC) and the minimum bactericidal concentration (MBC) of these peptides against the isolates were determined using a standardized broth microdilution assay. In addition to the mastitis isolates, E. coli (ATCC 25922) and S. aureus (ATCC 29213) reference strains were evaluated. […] The assays were performed in accordance with Clinical and Laboratory Standards Institute (CLSI) [formerly National Committee for Clinical Laboratory Standards (NCCLS)] guidelines (National Committee for Clinical Laboratory Standards. 1999. Methods for Determining Bacterial Activity of Antimicrobial Agents: Approved Guideline. Wayne, Pa.; National Committee for Clinical Laboratory Standards. 2002. Performance Standards for Antimicrobial Disk and Dilution Susceptibility Tests for Bacteria Isolated from Animals: Approved Standard. 2nd Edition, Wayne, Pa.). […] The bacterial suspension was then diluted 100-fold in cation-adjusted Mueller-Hinton broth to reach a final inoculum concentration of 10^6 CFU/ml. […] A negative control column was included in the plate that included 100 μl of broth alone. The plates were incubated for 18 h at 35° C. with ambient air circulation and without shaking. The wells were subsequently inspected for cloudiness and pellet formation using a magnifying glass plate reader. The lowest concentration at which no pellet or cloudiness was apparent in a given well was identified as the MIC. […] The plates were incubated overnight at 35° C. and colonies subsequently enumerated. The MBC values were determined as the lowest concentration at which ≧99.9% of inoculated bacteria were killed. All assays were performed in triplicate and the MIC and MBC range reported.

[2] = tested on: Pseudomonas aeruginosa; assay: microbe, parasite or virus in culture; type: cell-based
Source text: as §1

[3] = tested on: Serratia marcescens; assay: microbe, parasite or virus in culture; type: cell-based
Source text: as §1

[4] = tested on: Staphylococcus aureus; assay: microbe, parasite or virus in culture; type: cell-based
Source text: as §1

[5] = tested on: bacterial LPS derived from E. coli 0111:B4; assay: LPS neutralization, Limulus amebocyte lysate (LAL) assay; type: biochemical; settings: 1 ng LPS; for inhibition of LPS activity: 30 min
Procedure: FIG. 1 depicts the mean (±S.E.) percent neutralization of bacterial LPS bioactivity as determined with the Limulus amebocyte lysate assay. Increasing concentrations of peptides or polymixin B were incubated with 1 ng of E. coli-derived LPS for 30 min. Following incubation, the amount of free LPS was determined by extrapolation from a standard curve and the percent of bound (neutralized) LPS was calculated.
The ability of the peptides to neutralize LPS was determined using a commercially available Limulus amebocyte lysate (LAL) assay (Cambrex BioScience Walkersville, Inc., Walkersville, Md.). As a positive control, polymyxin B (Sigma Chemical Co.) was evaluated in parallel with the peptides. Increasing concentrations of peptides or polymyxin B were incubated with 1 ng of highly purified bacterial LPS (Sigma Chemical Co.), derived from E. coli 0111:B4, in a 500 μl reaction volume of endotoxin-free water for 30 min at 37° C. while shaking at 100 rpm. Following the incubation, the amount of free LPS was determined in each sample according to the manufacturer's instructions. Briefly, 50 μl of the above mixture was placed into a 96-well microtiter plate and the reaction initiated by the addition of an equal volume of amoebocyte lysate. Following an incubation at 37° C. for 10 min, 100 μl of chromogenic substrate was added and the plate incubated for 5-10 min at 37° C. The reaction was stopped by the addition of 50 μl of glacial acetic acid and the absorbance measured at a wavelength of 405 nm on a microplate reader (Biotec Instruments, Inc., Winooski, Vt.). The amount of non-bound LPS was extrapolated from a standard curve and the percent inhibition calculated according to the following formula: […]
To determine whether the bBPI peptides were able to neutralize LPS, increasing concentrations of the peptides were incubated with LPS (1 ng) and the resulting mixture assayed with the LAL assay (FIG. 1). As a positive and negative control, respectively, polymyxin B and a non-BPI-derived peptide were also assayed. […] In contrast, bBPI142-169 and bBPI90-99,148-161 were able to neutralize ≧93% of LPS activity at peptide concentrations of 30 and 100 μg/ml, respectively.

“KWKARKNFIKGSSLGWLIQLFRKR [bBPI90-99,148-161]” was tested, and the “MIC and MBC values” [1] was ≤ 64 µg/mL, the “MIC and MBC values” [2] was ≤ 128 µg/mL and the MBC [3] was >512 µg/mL. The MIC [3] was >512 µg/mL, the MBC [4] was 64 to 128 µg/mL and the MIC [4] was 64 µg/mL. The “inhibition of LPS activity” value ([5]; 1 μg/ml) was “no inhibition” and the “inhibition of LPS activity” value ([5]; 30 μg/ml) was 74%.
For “NSQIRPLPDKGLDLSIRDASIKIRGKWKARKNFIK [bBPI65-99]”, the MBC [1] was >256 µg/mL, the MIC [1] was >256 µg/mL and the MBC [2] was >256 µg/mL. The MIC [2] was >256 µg/mL, the MBC [3] was >512 µg/mL and the MIC [3] was >512 µg/mL. For the same sequence, the MBC [4] was >256 µg/mL, the MIC [4] was >256 µg/mL and the “inhibition of LPS activity” value ([5]; 1 μg/ml) was “approximately 20%”. The “maximal inhibition of LPS activity” value ([5]; within the dose-response range tested) was 50%.
“VRIHISGSSLGWLIQLFRKRIESLLQKS [bBPI142-169]” was tested, and the MBC [1] was >256 µg/mL, the MIC [1] was >256 µg/mL and the MBC [2] was >256 µg/mL. For the same sequence, the MIC [2] was >256 µg/mL, the MBC [3] was >512 µg/mL and the MIC [3] was >512 µg/mL. For the same sequence, the MBC [4] was 128 to 256 µg/mL, the MIC [4] was 128 to 256 µg/mL and the “inhibition of LPS activity” value ([5]; 1 μg/ml) was “approximately 20%”.
